# Laboratory results from patent US11672821B2, “Methods for treating respiratory conditions using ionic aqueous polysaccharide compositions” (Gerolymatos International S.A., priority 2013, dated 2023).
# What was measured:
# [1] = test system: human nasal epithelial cells; experiment: Cilia beating frequency (CBF) in three-dimensional nasal epithelial cultures from an allergic donor; format: cell-based; conditions: Day 4, versus control
# IL-8 = experiment: HCPt-induced IL-8 secretion in three-dimensional nasal epithelial cultures from an allergic donor, ELISA; format: cell-based, human; conditions: 30 μl of 20 mM HCPt, 16 hours exposure; peak of IL-8 secretion at Day 4
smiles,measurement,setting,value
"[Cl][Pt-2]([Cl])([Cl])([Cl])([Cl])[Cl].[NH4+].[NH4+] [HCPt, Ammonium hexachloroplatinate]",cilia beating frequency (CBF) with HCPt alone,[1],reduced CBF versus control
same,IL-8 secretion with HCPt alone,IL-8,efficiently induced inflammation
